According to US8758816B2, “Compositions comprising azelastine and methods of use thereof” (priority 2004, dated 2014):
Where “and” joins values, the source holds several entries; their conditions need not be identical. Equal entries are not always repeated. Structures can show the parent of a compound that is named as a salt.

Legend:
[1] = test system: patients with seasonal allergic rhinitis (SAR); assay: MP 428 study: adverse events, Safety Population; assay type: in vivo, human
Protocol: A two-week, randomized, double-blind study, which evaluated the effects of the co-administration of ASTELIN® (azelastine hydrochloride (HCl)) and FLONASE® (fluticasone propionate) compared to either product alone in patients with seasonal allergic rhinitis (SAR) was conducted during the 2006 Texas mountain cedar season. After a 5-day placebo lead-in period, 151 patients with moderate-to-severe allergic rhinitis symptoms were randomized to either: (1) (49 total patients) ASTELIN® (azelastine hydrochloride (HCl)) plus placebo saline nasal spray 2 sprays per nostril, 15 minutes apart, twice daily (AM & PM); (2) (50 total patients) FLONASE® (fluticasone propionate) plus placebo saline nasal spray, 2 sprays per nostril, 15 minutes apart, once daily (AM) and two sessions of placebo saline nasal spray, 2 sprays per nostril, 15 minutes apart (PM); or (3) (52 total patients) the co-administration of ASTELIN® (azelastine hydrochloride (HCl)) 2 sprays per nostril plus FLONASE® (fluticasone propionate) 2 sprays per nostril (AM), 15 minutes apart, and ASTELIN® (azelastine hydrochloride (HCl)) 2 sprays per nostril plus placebo saline nasal spray, 15 minutes apart, (PM) for a 2-week double-blind treatment period.
The most common adverse events (AEs) were bitter taste (8.2% in ASTELIN® (azelastine hydrochloride (HCl)) group, 2.0% in FLONASE® (fluticasone propionate) group, 13.5% in co-administration group) and headache (4.1% in ASTELIN® (azelastine hydrochloride (HCl)) group, 4.0% in FLONASE® (fluticasone propionate) group, 5.8% in co-administration group). No other AE was reported by more than one patient in any treatment group. There were no discontinuations due to AEs.

[2] = test system: patients with seasonal allergic rhinitis (SAR); assay: MP 428 study: Adult Rhinoconjunctivitis Quality of Life Questionnaire outcomes, change from baseline; assay type: in vivo, human; conditions: Day 14/ET; Intent-to-Treat Population

## CN1CCCC(n2nc(Cc3ccc(Cl)cc3)c3ccccc3c2=O)CC1 (racemic) [Azelastine, (±)-1-(2H)-phthalazinone, 4-[(4-chlorophenyl)methyl]-2-(hexahydro-1-methyl-1H-azepin-4-yl)-, mono-hydrochloride]
[1]; max severity Mild
  Treatment-Emergent AE: NASAL DISCOMFORT: 0 (0.0) No. of Patients (%)
  Treatment-Emergent AE: NECK PAIN: 1 (2.0) No. of Patients (%)
  Treatment-Emergent AE: NERVOUS SYSTEM DISORDERS, Any Preferred Term: 1 (2.0) No. of Patients (%)
  Treatment-Emergent AE: PHARYNGOLARYNGEAL PAIN: 0 (0.0) No. of Patients (%)
  Treatment-Emergent AE: RESPIRATORY, THORACIC AND MEDIASTINAL DISORDERS, Any Preferred Term: 0 (0.0) No. of Patients (%)
  Treatment-Emergent AE: STOMACH DISCOMFORT: 0 (0.0) No. of Patients (%)
[1]; max severity Mild, mono-hydrochloride
  Treatment-Emergent AE: Any Adverse Event: 3 (6.1) No. of Patients (%) and 3 (0.1) No. of Patients (%)
[1]; max severity Moderate
  Treatment-Emergent AE: Any Adverse Event: 2 (4.1) No. of Patients (%)
  Treatment-Emergent AE: DRY MOUTH: 0 (0.0) No. of Patients (%)
  Treatment-Emergent AE: DYSGEUSIA: 0 (0.0) No. of Patients (%)
  Treatment-Emergent AE: EAR AND LABYRINTH DISORDERS, Any Preferred Term: 1 (2.0) No. of Patients (%)
  Treatment-Emergent AE: EAR PAIN: 1 (2.0) No. of Patients (%)
  Treatment-Emergent AE: EPISTAXIS: 0 (0.0) No. of Patients (%)
  Treatment-Emergent AE: GASTROINTESTINAL DISORDERS, Any Preferred Term: 0 (0.0) No. of Patients (%)
  Treatment-Emergent AE: HEADACHE: 1 (2.0) No. of Patients (%)
  Treatment-Emergent AE: MUSCULOSKELETAL AND CONNECTIVE TISSUE DISORDERS, Any Preferred Term: 0 (0.0) No. of Patients (%)
  Treatment-Emergent AE: MYALGIA: 0 (0.0) No. of Patients (%)
  Treatment-Emergent AE: NASAL DISCOMFORT: 0 (0.0) No. of Patients (%)
  Treatment-Emergent AE: NECK PAIN: 0 (0.0) No. of Patients (%)
  Treatment-Emergent AE: NERVOUS SYSTEM DISORDERS, Any Preferred Term: 1 (2.0) No. of Patients (%)
  Treatment-Emergent AE: PHARYNGOLARYNGEAL PAIN: 1 (2.0) No. of Patients (%)
  Treatment-Emergent AE: RESPIRATORY, THORACIC AND MEDIASTINAL DISORDERS, Any Preferred Term: 1 (2.0) No. of Patients (%)
  Treatment-Emergent AE: STOMACH DISCOMFORT: 0 (0.0) No. of Patients (%)
[1]; max severity Severe
  Treatment-Emergent AE: Any Adverse Event: 3 (6.1) No. of Patients (%)
  Treatment-Emergent AE: DRY MOUTH: 0 (0.0) No. of Patients (%)
  Treatment-Emergent AE: DYSGEUSIA: 3 (6.1) No. of Patients (%)
  Treatment-Emergent AE: EAR AND LABYRINTH DISORDERS, Any Preferred Term: 0 (0.0) No. of Patients (%)
  Treatment-Emergent AE: EAR PAIN: 0 (0.0) No. of Patients (%)
  Treatment-Emergent AE: EPISTAXIS: 0 (0.0) No. of Patients (%)
  Treatment-Emergent AE: GASTROINTESTINAL DISORDERS, Any Preferred Term: 3 (6.1) No. of Patients (%)
  Treatment-Emergent AE: HEADACHE: 0 (0.0) No. of Patients (%)
  Treatment-Emergent AE: MUSCULOSKELETAL AND CONNECTIVE TISSUE DISORDERS, Any Preferred Term: 0 (0.0) No. of Patients (%)
  Treatment-Emergent AE: MYALGIA: 0 (0.0) No. of Patients (%)
  Treatment-Emergent AE: NASAL DISCOMFORT: 0 (0.0) No. of Patients (%)
  Treatment-Emergent AE: NECK PAIN: 0 (0.0) No. of Patients (%)
  Treatment-Emergent AE: NERVOUS SYSTEM DISORDERS, Any Preferred Term: 0 (0.0) No. of Patients (%)
  Treatment-Emergent AE: PHARYNGOLARYNGEAL PAIN: 0 (0.0) No. of Patients (%)
  Treatment-Emergent AE: RESPIRATORY, THORACIC AND MEDIASTINAL DISORDERS, Any Preferred Term: 0 (0.0) No. of Patients (%)
  Treatment-Emergent AE: STOMACH DISCOMFORT: 0 (0.0) No. of Patients (%)
[1]; share of treatment group
  adverse event: bitter taste: 8.2%
  adverse event: headache: 4.1%
[2]
  RQLQ Change From Baseline in Activity, LS Mean: −1.37
  RQLQ Change From Baseline in Activity, Mean: −1.25
  RQLQ Change From Baseline in Activity, Median: −1.00
  RQLQ Change From Baseline in Emotional, LS Mean: −1.26
  RQLQ Change From Baseline in Emotional, Mean: −1.13
  RQLQ Change From Baseline in Emotional, Median: −1.00
  RQLQ Change From Baseline in Eye Symptoms, LS Mean: −1.64
  RQLQ Change From Baseline in Eye Symptoms, Mean: −1.49
  RQLQ Change From Baseline in Eye Symptoms, Median: −1.25
  RQLQ Change From Baseline in Nasal Symptoms, LS Mean: −1.46
  RQLQ Change From Baseline in Nasal Symptoms, Mean: −1.31
  RQLQ Change From Baseline in Nasal Symptoms, Median: −1.25
  RQLQ Change From Baseline in Non-nose/eye Symptoms, LS Mean: −0.88
  RQLQ Change From Baseline in Non-nose/eye Symptoms, Mean: −0.82
  RQLQ Change From Baseline in Non-nose/eye Symptoms, Median: −0.86
  RQLQ Change From Baseline in Overall Score, LS Mean: −1.21
  RQLQ Change From Baseline in Overall Score, Mean: −1.11
  RQLQ Change From Baseline in Overall Score, Median: −1.13
  RQLQ Change From Baseline in Practical Problems, LS Mean: −1.59
  RQLQ Change From Baseline in Practical Problems, Mean: −1.50
  RQLQ Change From Baseline in Practical Problems, Median: −1.33
  RQLQ Change From Baseline in Sleep, LS Mean: −1.23
  RQLQ Change From Baseline in Sleep, Mean: −1.02
  RQLQ Change From Baseline in Sleep, Median: −1.00
